Data published in patent US20020137929A1, “1 - (3-heterocyclylphenyl) isothiourea, -isourea, -guanidine and -amidine herbicidal agents” (Intellectual Property Department, BASF Aktiengesellschaft, priority 1998, published 2002).

Columns and labels:
GALAP (Galium) = test: Postemergence herbicidal evaluation; format: in vivo, Galium aparine
Method in brief: (§1)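 Seedlings grown about two weeks were sprayed at 40 psi with compound dispersed in 50/50 acetone/water plus 0.5% TWEEN 20, at about 0.0156 to 0.500 kg/ha. Plants were kept in the greenhouse and scored 4–5 weeks later on a 0–9 visual scale against untreated controls.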

ORYSAT (Rice, Tebonnet) [1] = test: Preemergence herbicidal evaluation; format: in vivo, Oryza sativa, (L.) Tebonnet; conditions: rated 4-5 weeks after treatment
Method in brief: (§2)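 Steps: mix seeds into potting soil; plant atop ~1 inch soil; spray compound in aqueous acetone (~0.0156-0.500 kg/ha equivalent); maintain in greenhouse with watering; rate visually 0-9 versus control at 4-5 weeks.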

ZEAMX (Corn, Field) = test: Postemergence herbicidal evaluation; format: in vivo, Zea mays
Method in brief: as §1

AMBEL (Ragweed, Common) = test: Preemergence herbicidal evaluation; format: in vivo, Ambrosia artemisifolia; conditions: rated 4-5 weeks after treatment
Method in brief: as §2

ORYSAT (Rice, Tebonnet) [2] = test: Postemergence herbicidal evaluation; format: in vivo, Oryza sativa, (L.) Tebonnet
Method in brief: as §1

CYPSE (Flatsedge) [3] = test: Preemergence weed control under flooded paddy conditions; format: in vivo, Cyperus serotinus; conditions: rated 3-4 weeks after treatment
Method in brief: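 Values are visual 0-9 scores against a control for a preemergence application into paddy flood water at about 0.0313 to 0.500 kg/ha. Greenhouse duration was three to four weeks.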

[4] = tested on: SAGPY (Arrowhead (Pygmaea)); test: Postemergence weed control under flooded paddy conditions; format: in vivo, Sagittaria pygmaea; conditions: postemergence weeds, 3-4 weeks after treatment
Method in brief: (§3)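 Injury ratings (0–9 scale covering stand, vigor, malformation, size, chlorosis and overall appearance versus control) were made three to four weeks after treatment. Test material, about 0.0313 to 0.500 kg/ha a.i. in 50/50 v/v aqueous/acetone, was added to flood water 1.5 to 3 cm deep over 3 to 5 cm weeds and 1.5 to 2.5 leaf rice.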

[5] = tested on: GLXMAW (Soybean, Williams); test: Preemergence herbicidal evaluation; format: in vivo, Glycine max, (L.) Merr. cv Williams; conditions: rated 4-5 weeks after treatment
Method in brief: as §2

CASOB (Sicklepod) = test: Postemergence herbicidal evaluation; format: in vivo, Cassia obtusifolia
Method in brief: as §1

SETVI (Foxtail, Green) = test: Preemergence herbicidal evaluation; format: in vivo, Setaria viridis; conditions: rated 4-5 weeks after treatment
Method in brief: as §2

[6] = tested on: CHEAL (Lambsquarters, Common); test: Postemergence herbicidal evaluation; format: in vivo, Chenopodium album
Method in brief: as §1

CYPIR (Rice Flatsedge) = test: Postemergence weed control under flooded paddy conditions; format: in vivo, Cyperus iria; conditions: postemergence weeds, 3-4 weeks after treatment
Method in brief: as §3

CYPSE (Flatsedge) [7] = test: as above; format: in vivo, Cyperus serotinus; conditions: postemergence weeds, 3-4 weeks after treatment
Method in brief: as §3

Structure (SMILES): CCOC(=O)CN1CCSC1=Nc1cc(-n2nc(C)n(C(F)F)c2=O)c(F)cc1Cl [Compound 36]
- Postemergence herbicidal rating GALAP (GALAP (Galium); Rate 0.0158 kg/ha): 0.0
- Postemergence herbicidal rating GALAP (GALAP (Galium); Rate 0.0315 kg/ha): 1.0
- Postemergence herbicidal rating GALAP (GALAP (Galium); Rate 0.0630 kg/ha): 4.0
- Preemergence herbicidal rating ORYSAT (ORYSAT (Rice, Tebonnet) [1]; rate 0.0625 kg/ha): 0.0
- Preemergence herbicidal rating ORYSAT (ORYSAT (Rice, Tebonnet) [1]; rate 0.1250 kg/ha): 0.0
- Preemergence herbicidal rating ORYSAT (ORYSAT (Rice, Tebonnet) [1]; rate 0.2500 kg/ha): 4.0
- Postemergence herbicidal rating ZEAMX (ZEAMX (Corn, Field); Rate 0.0158 kg/ha): 4.5
- Postemergence herbicidal rating ZEAMX (ZEAMX (Corn, Field); Rate 0.0315 kg/ha): 6.0
- Postemergence herbicidal rating ZEAMX (ZEAMX (Corn, Field); Rate 0.0630 kg/ha): 7.5
- Preemergence herbicidal rating AMBEL (AMBEL (Ragweed, Common); rate 0.0625 kg/ha): 0.0
- Preemergence herbicidal rating AMBEL (AMBEL (Ragweed, Common); rate 0.1250 kg/ha): 0.0
- Preemergence herbicidal rating AMBEL (AMBEL (Ragweed, Common); rate 0.2500 kg/ha): 9.0
- Postemergence herbicidal rating ORYSAT (ORYSAT (Rice, Tebonnet) [2]; Rate 0.0158 kg/ha): 0.5
- Postemergence herbicidal rating ORYSAT (ORYSAT (Rice, Tebonnet) [2]; Rate 0.0315 kg/ha): 1.0
- Postemergence herbicidal rating ORYSAT (ORYSAT (Rice, Tebonnet) [2]; Rate 0.0630 kg/ha): 6.0
- Herbicidal rating CYPSE (CYPSE (Flatsedge) [3]; 0.0313 kg/ha): 0.0
- Herbicidal rating CYPSE (CYPSE (Flatsedge) [3]; 0.0625 kg/ha): 0.0
- Herbicidal rating CYPSE (CYPSE (Flatsedge) [3]; 0.1250 kg/ha): 2.0
- Herbicidal rating CYPSE (CYPSE (Flatsedge) [3]; 0.2500 kg/ha): 4.0
- Herbicidal rating SAGPY ([4]; rate 0.0313 kg/ha): 0.0
- Herbicidal rating SAGPY ([4]; rate 0.0625 kg/ha): 0.0
- Herbicidal rating SAGPY ([4]; rate 0.1250 kg/ha): 3.0
- Herbicidal rating SAGPY ([4]; rate 0.2500 kg/ha): 9.0
- Preemergence herbicidal rating GLXMAW ([5]; rate 0.0625 kg/ha): 0.0
- Preemergence herbicidal rating GLXMAW ([5]; rate 0.1250 kg/ha): 0.0
- Preemergence herbicidal rating GLXMAW ([5]; rate 0.2500 kg/ha): 0.0
- Postemergence herbicidal rating CASOB (CASOB (Sicklepod); Rate 0.0158 kg/ha): 0.0
- Postemergence herbicidal rating CASOB (CASOB (Sicklepod); Rate 0.0315 kg/ha): 0.0
- Postemergence herbicidal rating CASOB (CASOB (Sicklepod); Rate 0.0630 kg/ha): 0.0
- Preemergence herbicidal rating SETVI (SETVI (Foxtail, Green); rate 0.0625 kg/ha): 0.0
- Preemergence herbicidal rating SETVI (SETVI (Foxtail, Green); rate 0.1250 kg/ha): 9.0
- Preemergence herbicidal rating SETVI (SETVI (Foxtail, Green); rate 0.2500 kg/ha): 9.0
- Postemergence herbicidal rating CHEAL ([6]; Rate 0.0158 kg/ha): 2.0
- Postemergence herbicidal rating CHEAL ([6]; Rate 0.0315 kg/ha): 3.0
- Postemergence herbicidal rating CHEAL ([6]; Rate 0.0630 kg/ha): 4.0
- Herbicidal rating CYPIR (CYPIR (Rice Flatsedge); rate 0.0313 kg/ha): 0.0
- Herbicidal rating CYPIR (CYPIR (Rice Flatsedge); rate 0.0625 kg/ha): 5.0
- Herbicidal rating CYPIR (CYPIR (Rice Flatsedge); rate 0.1250 kg/ha): 5.0
- Herbicidal rating CYPIR (CYPIR (Rice Flatsedge); rate 0.2500 kg/ha): 9.0
- Herbicidal rating CYPSE (CYPSE (Flatsedge) [7]; rate 0.0313 kg/ha): 0.0
- Herbicidal rating CYPSE (CYPSE (Flatsedge) [7]; rate 0.0625 kg/ha): 0.0
- Herbicidal rating CYPSE (CYPSE (Flatsedge) [7]; rate 0.1250 kg/ha): 2.0
- Herbicidal rating CYPSE (CYPSE (Flatsedge) [7]; rate 0.2500 kg/ha): 4.0
